Columns and labels:
Tdp1 = Tdp1 (Homo sapiens, UniProt Q9NUW8); assay: Recombinant Tdp1 assay; format: biochemical; conditions: determined in duplicate; Table 2; read-out: Enzyme Inhibitory Activity Tdp1 (IC50)
[1] = system: NCI-60 panel of human cancer cell lines; assay: NCI-60 screen, mean graph midpoint over all cell lines; conditions: Homo sapiens, read-out: Cytotoxicity (GI50) MGM
MCF-7 = assay: NCI-60 cytotoxicity, MCF-7; conditions: Homo sapiens, MCF7, read-out: Cytotoxicity (GI50) Breast MCF-7
SN12C = assay: NCI-60 cytotoxicity, SN12C; conditions: Homo sapiens, read-out: Cytotoxicity (GI50) Renal SN12C
DU-145 = assay: NCI-60 cytotoxicity, DU-145; format: cell-based; conditions: Homo sapiens, single determinations, Table 2, read-out: Cytotoxicity (GI50) Prostate DU-145
SF-539 = assay: NCI-60 cytotoxicity, SF-539; conditions: Homo sapiens, SF-539, read-out: Cytotoxicity (GI50) CNS SF-539
UACC-62 = assay: NCI-60 cytotoxicity, UACC-62; conditions: Homo sapiens, UACC-62, read-out: Cytotoxicity (GI50) Melanoma UACC-62
OVCAR-3 = assay: NCI-60 cytotoxicity, OVCAR-3; conditions: Homo sapiens, OVCAR-3, read-out: Cytotoxicity (GI50) Ovarian Ovcar-3
recombinant human TDP2 = target: T1, recombinant human TDP2 (Homo sapiens, UniProt O95551); assay: Recombinant Tdp2 assay; format: biochemical; conditions: determined in duplicate; Table 2; read-out: Enzyme Inhibitory Activity Tdp2 (IC50)
T1 sequence (O95551 1-362): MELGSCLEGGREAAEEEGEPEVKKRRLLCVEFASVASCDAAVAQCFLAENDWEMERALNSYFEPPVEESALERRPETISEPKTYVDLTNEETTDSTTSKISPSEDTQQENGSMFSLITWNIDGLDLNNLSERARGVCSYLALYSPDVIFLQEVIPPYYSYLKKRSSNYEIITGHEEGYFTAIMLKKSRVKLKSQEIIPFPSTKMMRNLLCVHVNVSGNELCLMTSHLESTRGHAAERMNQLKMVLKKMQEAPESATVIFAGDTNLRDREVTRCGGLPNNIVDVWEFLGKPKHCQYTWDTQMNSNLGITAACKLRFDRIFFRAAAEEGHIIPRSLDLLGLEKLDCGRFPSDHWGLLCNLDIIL
Method: TDP2 reactions were carried out as described previously with the following modifications. […] Reactions were terminated and treated similarly to whole-cell extract and recombinant Tdp1 reactions (see previous paragraph).

HOP-62 = assay: NCI-60 cytotoxicity, HOP-62; conditions: Homo sapiens, HOP-62, read-out: Cytotoxicity (GI50) Lung HOP-62
HCT-116 = assay: NCI-60 cytotoxicity, HCT-116; format: cell-based; conditions: Homo sapiens, single determinations, Table 2, read-out: Cytotoxicity (GI50) Colon HCT-116
Top1 = target: T2, Top1 (Homo sapiens, UniProt P11387); assay: Top1-mediated DNA cleavage assay; format: biochemical; conditions: DNA cleavage relative to 1 μM MJ-III-65 (19) and 1 μM camptothecin (18); Table 2
T2 sequence (P11387 1-765): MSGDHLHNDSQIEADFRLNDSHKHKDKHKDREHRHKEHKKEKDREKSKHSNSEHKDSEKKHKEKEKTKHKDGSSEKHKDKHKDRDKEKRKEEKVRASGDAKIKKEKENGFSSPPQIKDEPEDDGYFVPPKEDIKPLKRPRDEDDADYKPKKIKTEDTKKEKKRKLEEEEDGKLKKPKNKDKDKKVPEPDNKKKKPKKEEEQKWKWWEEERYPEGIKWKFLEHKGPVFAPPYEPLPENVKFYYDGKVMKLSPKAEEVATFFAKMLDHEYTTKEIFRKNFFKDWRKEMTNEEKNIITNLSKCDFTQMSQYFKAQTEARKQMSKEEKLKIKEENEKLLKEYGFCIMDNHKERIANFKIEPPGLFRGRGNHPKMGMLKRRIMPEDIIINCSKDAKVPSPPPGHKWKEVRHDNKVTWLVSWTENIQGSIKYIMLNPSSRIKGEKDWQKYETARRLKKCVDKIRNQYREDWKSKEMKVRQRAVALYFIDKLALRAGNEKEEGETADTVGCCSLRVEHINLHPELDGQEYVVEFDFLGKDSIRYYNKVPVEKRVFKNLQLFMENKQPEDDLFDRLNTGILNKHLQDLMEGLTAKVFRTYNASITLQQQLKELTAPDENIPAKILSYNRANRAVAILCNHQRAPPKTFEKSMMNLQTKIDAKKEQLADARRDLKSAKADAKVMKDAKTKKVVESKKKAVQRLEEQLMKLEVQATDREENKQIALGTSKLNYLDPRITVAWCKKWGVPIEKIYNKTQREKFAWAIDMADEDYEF

Tdp1, sequence (Q9NUW8 whole entry): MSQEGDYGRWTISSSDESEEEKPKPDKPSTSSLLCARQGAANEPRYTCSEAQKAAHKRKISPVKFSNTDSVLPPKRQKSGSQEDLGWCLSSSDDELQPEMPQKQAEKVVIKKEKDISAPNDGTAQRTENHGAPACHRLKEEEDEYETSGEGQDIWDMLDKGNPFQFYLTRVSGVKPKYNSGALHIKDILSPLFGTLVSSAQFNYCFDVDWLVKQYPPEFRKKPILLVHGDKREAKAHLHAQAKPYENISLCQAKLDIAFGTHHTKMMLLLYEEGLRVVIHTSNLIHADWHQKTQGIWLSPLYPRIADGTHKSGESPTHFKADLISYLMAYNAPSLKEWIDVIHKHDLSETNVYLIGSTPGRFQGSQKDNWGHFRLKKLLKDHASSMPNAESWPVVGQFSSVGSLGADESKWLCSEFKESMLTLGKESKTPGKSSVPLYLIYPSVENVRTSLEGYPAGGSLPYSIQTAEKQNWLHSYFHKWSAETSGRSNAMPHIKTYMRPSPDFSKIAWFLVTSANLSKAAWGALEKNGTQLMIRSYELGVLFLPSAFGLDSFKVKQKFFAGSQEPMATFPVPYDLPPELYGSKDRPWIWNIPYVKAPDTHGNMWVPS

COc1cnc2c(c1)C(=O)c1c-2n(CCCNC(C)C)c(=O)c2cc(F)ccc12 [Compound 17f, 3-Fluoro-6-(3-(isopropylamino)propyl)-9-methoxy-5H-pyrido[3′,2′:4,5]cyclopenta[1,2-c]isoquinoline-5,11(6H)-dione]
IC50 (Tdp1): > 111000 nM
GI50 [1]: 165 nM
GI50 (MCF-7): 31 nM
GI50 (SN12C): 164 nM
GI50 (DU-145): 210 nM
GI50 (SF-539): 248 nM
GI50 (UACC-62): 271 nM
GI50 (OVCAR-3): 190 nM
IC50 (recombinant human TDP2): > 111000 nM
GI50 (HOP-62): 107 nM
GI50 (HCT-116): 93 nM
Enzyme Inhibitory Activity Top1 (Top1): ++
melting point: 285 to 292 °C

CNCCCn1c2c(c3ccc(F)cc3c1=O)C(=O)c1cc(OC)cnc1-2 [Compound 17g, 3-Fluoro-9-methoxy-6-(3-(methylamino)propyl)-5H-pyrido[3′,2′:4,5]cyclopenta[1,2-c]isoquinoline-5,11(6H)-dione]
IC50 (Tdp1): > 111000 nM
GI50 [1]: 245 nM
GI50 (MCF-7): 34 nM
GI50 (SN12C): 211 nM
GI50 (DU-145): 202 nM
GI50 (SF-539): 368 nM
GI50 (UACC-62): 608 nM
GI50 (OVCAR-3): 263 nM
IC50 (recombinant human TDP2): 108000 ± 3000 nM
GI50 (HOP-62): 142 nM
GI50 (HCT-116): 143 nM
Enzyme Inhibitory Activity Top1 (Top1): +
melting point: 259 to 265 °C

COc1cnc2c(c1)C(=O)c1c-2n(CCCN2CCCC2)c(=O)c2cc(F)ccc12 [Compound 17i, 3-Fluoro-9-methoxy-6-(3-(pyrrolidin-1-yl)propyl)-5H-pyrido[3′,2′:4,5]cyclopenta[1,2-c]isoquinoline-5,11(6H)-dione]
IC50 (Tdp1): > 111000 nM
GI50 [1]: 288 nM
GI50 (MCF-7): 48 nM
GI50 (SN12C): 241 nM
GI50 (DU-145): 211 nM
GI50 (SF-539): 360 nM
GI50 (UACC-62): 471 nM
GI50 (OVCAR-3): 307 nM
IC50 (recombinant human TDP2): > 111000 nM
GI50 (HOP-62): 212 nM
GI50 (HCT-116): 153 nM
Enzyme Inhibitory Activity Top1 (Top1): +++
melting point: 157 to 162 °C
